Test results taken from patent publication US8119667B2, “Carbonates of fenicol antibiotics” (Schering-Plough Animal Health Corporation, priority 2005, dated 2012).
≈ marks a conversion by molar mass, not a printed value.

Columns and labels:
[1] = In vitro enzymatic release of parent florfenicol from prodrugs in bovine serum; type: in vitro ADME; details: for Florfenicol released from prodrugs (% of total) after treatment with bovine serum: 37° C.; for rates of florfenicol release in serum: bovine serum, among the compounds tested
Excerpt: The ability of a prodrug derivative of a parent drug molecule to act efficiently in vivo as a source of the free parent drug determines the utility of a particular prodrug for treatment. The prodrug's ability to release the parent drug in vivo, in the presence of endogenous enzymes, can be determined by measuring the systemic levels of the parent drug after administration of the prodrug to the animal. This releasibility can also be assessed in vitro by measuring the release of the parent drug after mixing with animal whole blood, plasma or serum. Selected benzylic carbonate prodrugs of florfenicol were tested for release of florfenicol after in vitro mixing with bovine serum. […] A general trend of more lipophilic carbonates of florfenicol showing higher rates of degradation and release seems to be present among the compounds tested.
50 microliter of stock solution of carbonate pro-drug (10 mg/mL in DMSO) was added to 5 mL donor bovine serum and mixed. Aliquots of 400 microliter of the resulting solution were transferred into 1.5 mL plastic centrifuge tubes. Each plastic tube was placed into at 37° C. water bath for incubation. Samples were removed at 0, 1, 2, 4, 8, and 24 hours, and after addition of 400 microliter of acetonitrile to stop the reaction, rapidly stirred for 30 seconds. The precipitate was removed by centrifugation on an Eppendorf 5415G at 14000 rpm for 5 minutes. The clear supernatant solution was sampled for the HPLC analysis. The peak area of florfenicol was used to calculate the conversion of the prodrugs.

[2] = Syringeability of dosing solutions (dripping-syringe method); type: physicochemical
Procedure: Table 4, below, provides evaluations of the syringeability of dosing solutions of selected florfenicol benzylic carbonate prodrugs at concentrations equivalent to 300 mg/ml florfenicol (30% weight/volume).
High concentrations of fenicol or fenicol drug contained in a fenicol prodrug are often necessary for convenient administration of the necessary amount of the desired amount of the antibiotic. Due to the limited solubility of fenicols in many organic solvents or mixtures of solvents acceptable for injectable formulations the choice of solvents for preparation of highly concentrated florfenicol solutions is limited. As a result highly concentrated solutions of fenicol drugs in organic solvents or solvent mixtures may become highly viscous and difficult to administer by a syringe. Therefore the ability of fenicol benzylic carbonate prodrugs to dissolve in a wider range of organic solvents or mixtures of solvents acceptable for injectable formulations offered the potential to prepare highly concentrated solutions for injections with lower viscosity. […] Test solutions of florfenicol benzylic carbonates containing concentrations of florfenicol (mg/mL) equivalent to the concentration present in Nuflor® formulation were prepared. Syringeabilities of the solutions were evaluated by means of the “dripping syringe” method in which the dripping times (sec) of equal volumes of such solutions under free gravitational flow conditions from a vertically positioned syringe were measured at 15° C. After removing the plunger from a 5 ml polyethylene disposable syringe (5 ml Luer, Norm-Ject Zentrish/Henke Saas Wolf GMBH) and fitting the syringe with a disposable needle (B-D® 16G1 Precision Glide/BentonDickinson & CO) the test solutions were loaded from the top into the syringe and the time necessary for the free flow of 2 mL of solution (between 3 ml and 1 ml marks) was recorded in triplicate. The syringeabilities relative to Nuflor® were calculated by dividing the dripping time for the test solutions (entries 1-12) by the dripping time measured for the commercial sample of Nuflor® formulation (entry 13) As it is evident from the results in Table 4 the syringeabilities of tested solutions containing benzyl alcohol as viscosity diluent had relative syringeabilities <1.00 and were therefore better than Nuflor® (30% weight/volume florfenicol solution in propylene glycol/polyethylene glycol 300/2-methyl pyrolidinone). Due to their better syringeability these solutions represent more favorable formulations for injectable delivery of florfenicol. Solution of the florfenicol benzylic carbonate of the example 2 in triacetin/2-pyrolidinone—1/1 lacking the benzyl alcohol viscosity diluent was the only solution with syringeability poorer that than that of Nuflor® (entry 5).

[3] = Aqueous solubility; type: physicochemical; details: aqueous medium (not further specified)
Procedure: In some therapeutic applications florfenicol is administered in concentrated organic solution subcutaneously where it is known to form localized depot of the drug which results in the desired sustained release of the drug into the circulation. In such cases solubility of florfenicol in aqueous media represents one of important factors determining the rate of the sustained release. Another important factor affecting the sustained release of florfenicol from the subcutaneous depot site is the concentration of the dosing solution and the solvent composition of the formulation. Apart from the broader range of solvents which can be used for acceptable formulations of florfenicol benzylic carbonate prodrugs these prodrugs also allow a wide range of aqueous solubilities. Solubilities achieved with these prodrugs range from slightly to dramatically lower than that of florfenicol. Reduced aqueous solubilities of such prodrugs may be useful in controlling the rate of dissolution of the prodrug at the subcutaneous depot site and may allow achieving optimized sustained release of the parent drug.

[4] = Solubility in triacetin/benzyl alcohol 2:1 (volume/volume) solvent mixture; type: physicochemical; details: 20° C.
Procedure: Florfenicol parent drug was not soluble in triacetin/benzyl alcohol 2:1 (volume/volume) even at concentrations as low as 10% (weight/volume). […] The combination of prodrug of Example 14 at 275 mg/ml and florfenicol at 100 mg/ml was soluble in triacetin/benzyl alcohol 2:1 (volume/volume) and provided a stable solution with 30% (weight/volume) content of florfenicol (Table 4, supra, entry 12).

[5] = prodrug concentration equivalent to 300 mg/ml florfenicol, Triacetin/benzyl alcohol/2-pyrolidinone - 2:1:1.5, 15° C.
[6] = prodrug concentration equivalent to 300 mg/ml florfenicol, Triacetin/benzyl alcohol - 2:1 (vol/vol), 15° C.
[7] = prodrug concentration equivalent to 300 mg/ml florfenicol, Triacetin/benzyl alcohol - 2:1 (vol/vol), free flow of 2 mL at 15° C.
[8] = 300 mg/ml, N-methyl 2-pyrolidinone/propylene glycol/polyethylene glycol 300, 15° C.

| SMILES | Florfenicol released from prodrugs (% of total) after treatment with bovine serum ([1]; 0 h) | solubility [3] | melting point | Solubility at selected concentration of contained florfenicol ([4]; 10% weight/volume florfenicol) | Solubility at selected concentration of contained florfenicol ([4]; 20% weight/volume florfenicol) | Solubility at selected concentration of contained florfenicol ([4]; 25% weight/volume florfenicol) | Solubility at selected concentration of contained florfenicol ([4]; 30% weight/volume florfenicol) | Solubility at selected concentration of contained florfenicol ([4]; 35% weight/volume florfenicol) | Solubility at selected concentration of contained florfenicol ([4]; 37% weight/volume florfenicol) | Solubility at selected concentration of contained florfenicol ([4]; 40% weight/volume florfenicol) | other results |
| --- | --- | --- | --- | --- | --- | --- | --- | --- | --- | --- | --- |
| CC(C)OC(=O)O[C@H](c1ccc(S(C)(=O)=O)cc1)[C@@H](CF)NC(=O)C(Cl)Cl [Example 4, (1R,2S)-2-(2,2-dichloroacetamido)-3-fluoro-1-(4-(methylsulfonyl)phenyl)propyl isopropyl carbonate] | BQL | 100 µg/mL (≈ 225 µM) | 148 to 150 °C | – | – | – | – | – | – | – | Florfenicol released from prodrugs (% of total) after treatment with bovine serum ([1]; 1 h): BQL; Florfenicol released from prodrugs (% of total) after treatment with bovine serum ([1]; 2 h): BQL; Syringeability measurement: Dripping time [2, 5]: 164 ± 3 s; Syringeability measurement: Relative to NUFLOR [2, 5]: 0.70 |
| CC(C)COC(=O)O[C@H](c1ccc(S(C)(=O)=O)cc1)[C@@H](CF)NC(=O)C(Cl)Cl [Example 5, (1R,2S)-2-(2,2-dichloroacetamido)-3-fluoro-1-(4-(methylsulfonyl)phenyl)propyl isobutyl carbonate] | – | 7 µg/mL (≈ 15.3 µM) | 156 to 158 °C | – | – | – | – | – | – | – | – |
| CS(=O)(=O)c1ccc([C@@H](OC(=O)OCC2CC2)[C@@H](CF)NC(=O)C(Cl)Cl)cc1 [Example 6, Cyclopropylmethyl(1R,2S)-2-(2,2-dichloroacetamido)-3-fluoro-1-(4-(methylsulfonyl)phenyl)propyl carbonate] | – | 120 µg/mL (≈ 263 µM) | 132 to 134 °C | – | – | – | – | – | – | – | – |
| CC(C)CCOC(=O)O[C@H](c1ccc(S(C)(=O)=O)cc1)[C@@H](CF)NC(=O)C(Cl)Cl [Example 8, (1R,2S)-2-(2,2-dichloroacetamido)-3-fluoro-1-(4-(methylsulfonyl)phenyl)propyl isopentyl carbonate] | BQL | 25 µg/mL (≈ 52.9 µM) | 120 to 122 °C | – | – | – | – | – | – | – | rates of florfenicol release in serum [1]: highest rates; Syringeability measurement: Dripping time [2, 5]: 157 ± 1 s; Syringeability measurement: Relative to NUFLOR [2, 5]: 0.67 |
| COCCOC(=O)O[C@H](c1ccc(S(C)(=O)=O)cc1)[C@@H](CF)NC(=O)C(Cl)Cl [Example 11, (1R,2S)-2-(2,2-dichloroacetamido)-3-fluoro-1-(4-(methylsulfonyl)phenyl)propyl 2-methoxyethyl carbonate] | – | 770 µg/mL (≈ 1670 µM) | – | – | – | – | – | – | – | – | – |
| CCOCCOC(=O)O[C@H](c1ccc(S(C)(=O)=O)cc1)[C@@H](CF)NC(=O)C(Cl)Cl [Example 12, (1R,2S)-2-(2,2-dichloroacetamido)-3-fluoro-1-(4-(methylsulfonyl)phenyl)propyl 2-ethoxyethyl carbonate] | – | 350 µg/mL (≈ 738 µM) | 88 to 90 °C | – | – | – | – | – | – | – | – |
| CCCCOCCOC(=O)O[C@H](c1ccc(S(C)(=O)=O)cc1)[C@@H](CF)NC(=O)C(Cl)Cl [Example 13, (1R,2S)-2-(2,2-dichloroacetamido)-3-fluoro-1-(4-(methylsulfonyl)phenyl)propyl 2-butoxyethyl carbonate] | BQL | 150 µg/mL (≈ 299 µM) | – | soluble | soluble | soluble | soluble | soluble | soluble | soluble | Florfenicol released from prodrugs (% of total) after treatment with bovine serum ([1]; 1 h): BQL; Syringeability measurement: Relative to NUFLOR [2, 6]: 0.61; Syringeability measurement: Dripping time [2, 7]: 141 ± 5 s |
| CS(=O)(=O)c1ccc([C@@H](OC(=O)OCc2ccccc2)[C@@H](CF)NC(=O)C(Cl)Cl)cc1 [Example 14, Benzyl(1R,2S)-2-(2,2-dichloroacetamido)-3-fluoro-1-(4-(methylsulfonyl)phenyl)propyl carbonate] | BQL | 32 µg/mL (≈ 65 µM) | 105 to 106 °C | soluble | soluble | soluble | soluble | soluble | soluble | insoluble | rates of florfenicol release in serum [1]: highest rates; Syringeability measurement: Relative to NUFLOR [2, 6]: 0.88; Syringeability measurement: Dripping time [2, 7]: 204 ± 9 s |
| CCOC(=O)[C@H](C)OC(=O)O[C@H](c1ccc(S(C)(=O)=O)cc1)[C@@H](CF)NC(=O)C(Cl)Cl [Example 17] | – | 550 µg/mL (≈ 1090 µM) | 44 to 54 °C | – | – | – | – | – | – | – | – |
| CS(=O)(=O)c1ccc([C@@H](OC(=O)OCCOC(=O)O[C@H](c2ccc(S(C)(=O)=O)cc2)[C@@H](CF)NC(=O)C(Cl)Cl)[C@@H](CF)NC(=O)C(Cl)Cl)cc1 [Example 26, Bis((1R,2S)-2-(2,2-dichloroacetamido)-3-fluoro-1-(4-(methylsulfonyl)phenyl)propyl)ethane-1,2-diyl dicarbonate] | BQL | 45 µg/mL (≈ 54.2 µM) | 110 to 112 °C | soluble | soluble | soluble | soluble | soluble | soluble | soluble | Florfenicol released from prodrugs (% of total) after treatment with bovine serum ([1]; 1 h): BQL; Syringeability measurement: Relative to NUFLOR [2, 6]: 0.93; Syringeability measurement: Dripping time [2, 7]: 216 ± 8 s |
| CS(=O)(=O)c1ccc([C@@H](O)[C@@H](CF)NC(=O)C(Cl)Cl)cc1 [Florfenicol, D-(threo)-1-(4-methylsulfonylphenyl)-2-dichloroacetamido-3-fluoro-1-propanol, reference compound] | – | 1530 µg/mL (≈ 4270 µM) | – | not soluble | insoluble | insoluble | insoluble | insoluble | insoluble | insoluble | Syringeability measurement: Dripping time [2, 8]: 233 ± 2 s; Syringeability measurement: Relative to NUFLOR [2, 8]: 1.00; Solubility at selected concentration of contained florfenicol ([4]; 10% weight/volume florfenicol, listed as florfenicol): insoluble |
